What was measured:
AP2M1 = biological target: T1, AP2M1 (Homo sapiens, UniProt Q96CW1); assay: CETSA-MS, MDA-MB-231 intact cells; type: cell-based; settings: 2 μM and 20 μM
T1 construct: endogenous in cells; host or cells: MDA-MB-231
In short: (§1)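 Using whole MDA-MB-231 cells, treatment was followed by washing and graded heating. Centrifuged lysate supernatants were denatured, acetone-pelleted, digested and labeled; MS proteomics measured remaining soluble protein per temperature.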

BOD1L1 = biological target: T2, BOD1L1 (Homo sapiens, UniProt Q8NFC6); assay: CETSA-MS, MDA-MB-231 intact cells; type: cell-based; settings: 2 μM and 20 μM
T2 construct: endogenous in cells; host or cells: MDA-MB-231
In short: as §1

HNRNPA0 = biological target: T3, HNRNPA0 (Homo sapiens, UniProt Q13151); assay: CETSA-MS, MDA-MB-231 intact cells; type: cell-based; settings: 2 μM and 20 μM
T3 construct: 148 targets unique to Compound 1 in MDA-MB-231 intact cells; endogenous in cells; host or cells: MDA-MB-231
In short: as §1

IGFBP7 = biological target: T4, IGFBP7 (Homo sapiens, UniProt Q16270); assay: CETSA-MS, MDA-MB-231 intact cells; type: cell-based; settings: 2 μM and 20 μM
T4 construct: endogenous in cells; host or cells: MDA-MB-231
In short: as §1

LYN = biological target: T5, LYN (Homo sapiens, UniProt P07948); assay: CETSA-MS, MDA-MB-231 intact cells; type: cell-based; settings: 2 μM and 20 μM
T5 construct: endogenous in cells; host or cells: MDA-MB-231
In short: as §1

MAP3K20 = biological target: T6, MAP3K20 (Homo sapiens, UniProt Q9NYL2); assay: CETSA-MS, MDA-MB-231 intact cells; type: cell-based; settings: 2 μM and 20 μM
T6 construct: endogenous in cells; host or cells: MDA-MB-231
In short: as §1

MLEC = biological target: T7, MLEC (Homo sapiens, UniProt Q14165); assay: CETSA-MS, MDA-MB-231 intact cells; type: cell-based; settings: 2 μM and 20 μM
T7 construct: endogenous in cells; host or cells: MDA-MB-231
In short: as §1

Hs578t cells = assay: Wound healing assay (24 Hour Migration Assay); type: cell-based; settings: 1.0 μM and 10.0 μM
Experimental: (§2) A cell-free area was created in a confluent monolayer by physical exclusion or by removing the cells from the area through mechanical, thermal or chemical damage. The exposure to the cell-free area induced the cells to migrate into the gap. The rate of gap closure was measured and plotted.

MDA-MB-231 cells = assay: Wound healing assay (24 Hour Migration Assay); type: cell-based; settings: MDA-MB-231, 1.0 μM and 10.0 μM
Experimental: as §2

BUB1 in MDA-MB-231 = assay: BUB1 levels after 72 hours treatment; type: cell-based; settings: MDA-MB-231 (TNBC)
Experimental: (§3) The effects on the different treatment conditions on BUB 1 levels and PARP cleavage were also assessed. For both MNA-MB-231 cells, Compound 1 alone or with HCQ or SBI decreased BUB1 levels and cleaved PARP with […] decreases in cell viability observed for all treatments except Compound 1+SBI in MMA-MB-231 cells. The effects of Compound 1 with or without autophagy inhibitors was less pronounced in HCC-1937 cells.

BUB1 in MDA-MB-468 = assay: BUB1 levels after 72 hours treatment; type: cell-based; settings: MDA-MB-468 (TNBC)
Experimental: as §3

CXCL10 = assay: qPCR of T-cell recruiting chemokine mRNA, PyMT cells; type: cell-based, mouse
NUAK1 = biological target: T8, NUAK1 (Homo sapiens, UniProt O60285); assay: NUAK1 In Vitro Kd, kinase binding assay (qPCR); settings: second In Vitro column of Table 8
T8 sequence (O60285 1-661): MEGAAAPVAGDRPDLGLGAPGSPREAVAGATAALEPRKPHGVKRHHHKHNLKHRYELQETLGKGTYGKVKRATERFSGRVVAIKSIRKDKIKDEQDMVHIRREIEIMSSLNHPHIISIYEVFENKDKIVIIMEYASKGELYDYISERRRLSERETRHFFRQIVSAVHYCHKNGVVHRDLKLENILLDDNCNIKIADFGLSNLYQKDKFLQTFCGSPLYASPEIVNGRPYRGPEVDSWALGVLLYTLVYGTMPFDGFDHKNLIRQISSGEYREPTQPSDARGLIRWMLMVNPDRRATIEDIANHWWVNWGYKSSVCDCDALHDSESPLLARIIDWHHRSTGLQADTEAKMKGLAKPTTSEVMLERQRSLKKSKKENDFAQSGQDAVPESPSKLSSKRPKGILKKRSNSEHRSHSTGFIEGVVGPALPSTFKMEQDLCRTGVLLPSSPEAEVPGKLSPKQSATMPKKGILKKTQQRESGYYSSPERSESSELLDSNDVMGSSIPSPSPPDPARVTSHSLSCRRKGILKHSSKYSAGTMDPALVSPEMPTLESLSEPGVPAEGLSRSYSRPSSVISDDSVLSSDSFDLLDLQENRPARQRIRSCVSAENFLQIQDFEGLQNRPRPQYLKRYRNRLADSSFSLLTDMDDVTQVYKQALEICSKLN
Experimental: Kinase-tagged T7 phage strains were prepared in an E. coli host derived from the BL21 strain. E. coli were grown to log-phase and infected with T7 phage and incubated with shaking at 32° C. until lysis. The lysates were spun by centrifuge and filtered to remove cell debris. The remaining kinases were produced in HEK-293 cells and subsequently tagged with DNA for qPCR detection. […] The liganded beads were blocked with excess biotin and washed with blocking buffer (SeaBlock (Pierce), 1% BSA, 0.05% Tween 20, 1 mM DTT) to remove unbound ligand and to reduce non-specific binding. […] Test compounds were prepared as 111× stocks in 100% DMSO. Kds were determined using an 11-point 3-fold compound dilution series with three DMSO control points.
The compounds were then diluted directly into the assays such that the final concentration of DMSO was 0.9%. All reactions performed in polypropylene 384-well plate. Each was a final volume of 0.02 ml. […] The kinase concentration in the eluates was measured by qPCR. Binding constants (Kds) were calculated with a standard dose-response curve using the Hill equation: Response=Background+Signal−Background 1+(KdHill Slope/DoseHill Slope) The Hill Slope was set to −1. Curves were fitted using a non-linear least square fit with the Levenberg-Marquardt algorithm.

CDK4/cyclin D1 = CDK4/cyclin D1 (Homo sapiens, UniProt P11802); assay: CDK4/cyclin D1 CETSA; type: cell-based; parameters: endogenous in cells; host or cells: MDA-MB-231 (lysates and intact cells)
Experimental: Following treatment, cell lysates were thermally treated in a thermal gradient profile across a temperature range. Following the thermal shift, cell lysates were spun by centrifuge to pellet aggregate protein and the supernatant withdrawn. The supernatant was then denatured in buffer and heated to denature, reduce, and alkylate the supernatant proteins. Following heating and cooling to room temperature, cold acetone was added to the supernatant samples and proteins precipitated.
TNBC MDA-MB-231 cells were grown at 37° C. in 5% CO2 and suspended in warm media and split into 4 equal volumes. […] Cells were incubated and then pelleted. Following pelleting, the cells were washed, resuspended, and heated in a thermal gradient. Following heating, the samples were flash frozen and lysed in lysis buffer, agitated by vortex, and sonicated prior to centrifugation. The supernatant was collected and denaturation buffer added. Cold acetone was then added to the cell samples, and protein collected by centrifugation. […]
The intact cell protein samples and lysate protein samples were then digested and labeled for mass spectrometry analysis according to the manufacturer's recommended protocols. Digested and labeled protein samples were analyzed by mass spectrometry proteomic analysis and the resulting protein targets were analyzed and plotted.

T1 sequence (Q96CW1 whole entry): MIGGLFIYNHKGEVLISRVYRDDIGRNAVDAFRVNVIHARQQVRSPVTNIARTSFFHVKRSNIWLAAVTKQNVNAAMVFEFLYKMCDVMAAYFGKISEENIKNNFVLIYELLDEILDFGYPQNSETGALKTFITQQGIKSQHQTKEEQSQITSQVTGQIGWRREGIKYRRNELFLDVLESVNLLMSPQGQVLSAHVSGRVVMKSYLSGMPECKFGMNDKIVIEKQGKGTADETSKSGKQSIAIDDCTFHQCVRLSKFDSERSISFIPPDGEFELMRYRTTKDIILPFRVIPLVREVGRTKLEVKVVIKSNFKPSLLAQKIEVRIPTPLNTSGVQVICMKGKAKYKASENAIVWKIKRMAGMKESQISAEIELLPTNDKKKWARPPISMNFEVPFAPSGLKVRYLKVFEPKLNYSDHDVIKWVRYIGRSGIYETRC
T1 sequence (O95782 whole entry partner): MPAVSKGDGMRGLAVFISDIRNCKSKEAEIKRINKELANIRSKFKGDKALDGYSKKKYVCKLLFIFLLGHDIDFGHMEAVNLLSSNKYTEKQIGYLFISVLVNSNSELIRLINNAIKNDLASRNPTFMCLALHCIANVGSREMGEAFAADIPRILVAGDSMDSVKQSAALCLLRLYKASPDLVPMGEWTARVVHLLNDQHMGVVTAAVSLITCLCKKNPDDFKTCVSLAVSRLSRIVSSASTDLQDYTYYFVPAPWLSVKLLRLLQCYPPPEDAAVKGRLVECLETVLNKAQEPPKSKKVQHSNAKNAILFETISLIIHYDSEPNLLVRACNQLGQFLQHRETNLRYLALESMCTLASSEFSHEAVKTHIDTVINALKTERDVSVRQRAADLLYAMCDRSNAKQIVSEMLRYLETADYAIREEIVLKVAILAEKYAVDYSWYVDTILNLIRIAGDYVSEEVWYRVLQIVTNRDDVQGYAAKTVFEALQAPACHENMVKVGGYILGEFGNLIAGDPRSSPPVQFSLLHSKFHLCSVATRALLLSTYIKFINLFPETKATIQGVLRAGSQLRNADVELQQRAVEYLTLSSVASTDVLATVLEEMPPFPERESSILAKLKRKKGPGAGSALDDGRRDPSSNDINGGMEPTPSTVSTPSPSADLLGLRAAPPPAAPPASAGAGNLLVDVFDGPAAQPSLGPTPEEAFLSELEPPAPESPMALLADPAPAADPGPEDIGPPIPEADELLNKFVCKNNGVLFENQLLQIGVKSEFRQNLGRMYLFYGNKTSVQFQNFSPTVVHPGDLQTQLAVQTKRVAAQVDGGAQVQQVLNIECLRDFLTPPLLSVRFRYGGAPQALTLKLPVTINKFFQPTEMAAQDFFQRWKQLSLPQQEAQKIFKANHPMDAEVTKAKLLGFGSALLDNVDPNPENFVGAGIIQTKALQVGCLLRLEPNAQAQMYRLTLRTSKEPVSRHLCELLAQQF
T1 sequence (P63010 whole entry partner): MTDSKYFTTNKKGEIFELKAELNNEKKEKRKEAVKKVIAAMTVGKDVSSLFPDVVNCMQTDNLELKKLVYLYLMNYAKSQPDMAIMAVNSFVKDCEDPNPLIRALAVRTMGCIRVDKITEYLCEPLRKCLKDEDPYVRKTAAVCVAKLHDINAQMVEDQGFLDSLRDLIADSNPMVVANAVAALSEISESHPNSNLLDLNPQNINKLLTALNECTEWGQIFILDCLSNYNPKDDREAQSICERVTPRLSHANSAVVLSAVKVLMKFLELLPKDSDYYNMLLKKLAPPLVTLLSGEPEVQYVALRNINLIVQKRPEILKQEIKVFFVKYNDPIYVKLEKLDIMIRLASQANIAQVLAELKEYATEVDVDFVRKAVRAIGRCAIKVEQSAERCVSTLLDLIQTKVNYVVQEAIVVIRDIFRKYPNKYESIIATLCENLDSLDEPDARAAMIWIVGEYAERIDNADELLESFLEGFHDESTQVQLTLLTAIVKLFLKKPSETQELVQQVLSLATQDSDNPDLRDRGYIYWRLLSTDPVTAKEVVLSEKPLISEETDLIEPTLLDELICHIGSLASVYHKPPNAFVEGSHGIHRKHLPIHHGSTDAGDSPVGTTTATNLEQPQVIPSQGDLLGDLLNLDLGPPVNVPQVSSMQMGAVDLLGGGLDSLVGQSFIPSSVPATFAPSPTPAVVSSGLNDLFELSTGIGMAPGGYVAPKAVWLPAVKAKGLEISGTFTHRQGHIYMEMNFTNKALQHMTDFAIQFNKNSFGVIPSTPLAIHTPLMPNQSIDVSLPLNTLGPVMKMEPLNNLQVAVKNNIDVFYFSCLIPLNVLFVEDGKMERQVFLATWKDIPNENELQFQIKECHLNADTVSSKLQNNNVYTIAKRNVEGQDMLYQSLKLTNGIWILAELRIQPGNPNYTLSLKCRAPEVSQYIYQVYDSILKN
T1 sequence (P53680 whole entry partner): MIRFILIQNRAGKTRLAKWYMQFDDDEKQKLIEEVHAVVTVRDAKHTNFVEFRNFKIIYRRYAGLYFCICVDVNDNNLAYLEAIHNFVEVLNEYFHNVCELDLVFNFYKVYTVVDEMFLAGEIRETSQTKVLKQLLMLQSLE
T6 sequence (Q9NYL2 whole entry): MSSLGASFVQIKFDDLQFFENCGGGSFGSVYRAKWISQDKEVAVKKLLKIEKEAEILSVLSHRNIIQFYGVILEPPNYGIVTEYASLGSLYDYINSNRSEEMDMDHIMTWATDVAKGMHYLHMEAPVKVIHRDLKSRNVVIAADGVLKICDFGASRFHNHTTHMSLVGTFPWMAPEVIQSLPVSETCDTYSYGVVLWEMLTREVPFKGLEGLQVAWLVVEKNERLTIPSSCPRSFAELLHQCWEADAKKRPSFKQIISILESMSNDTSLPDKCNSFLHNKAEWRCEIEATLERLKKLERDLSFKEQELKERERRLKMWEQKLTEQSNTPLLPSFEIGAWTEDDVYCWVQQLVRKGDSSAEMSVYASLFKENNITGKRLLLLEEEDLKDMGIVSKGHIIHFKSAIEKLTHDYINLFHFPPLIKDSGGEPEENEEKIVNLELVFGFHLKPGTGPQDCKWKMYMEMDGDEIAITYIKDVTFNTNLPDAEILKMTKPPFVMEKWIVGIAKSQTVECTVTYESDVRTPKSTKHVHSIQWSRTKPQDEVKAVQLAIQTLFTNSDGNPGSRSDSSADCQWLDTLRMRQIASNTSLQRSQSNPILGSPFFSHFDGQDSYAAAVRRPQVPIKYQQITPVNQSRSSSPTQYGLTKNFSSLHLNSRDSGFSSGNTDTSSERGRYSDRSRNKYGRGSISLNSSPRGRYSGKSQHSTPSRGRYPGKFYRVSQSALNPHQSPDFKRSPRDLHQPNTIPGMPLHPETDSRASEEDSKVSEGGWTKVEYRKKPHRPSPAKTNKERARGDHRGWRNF
T5 sequence (P07948 whole entry): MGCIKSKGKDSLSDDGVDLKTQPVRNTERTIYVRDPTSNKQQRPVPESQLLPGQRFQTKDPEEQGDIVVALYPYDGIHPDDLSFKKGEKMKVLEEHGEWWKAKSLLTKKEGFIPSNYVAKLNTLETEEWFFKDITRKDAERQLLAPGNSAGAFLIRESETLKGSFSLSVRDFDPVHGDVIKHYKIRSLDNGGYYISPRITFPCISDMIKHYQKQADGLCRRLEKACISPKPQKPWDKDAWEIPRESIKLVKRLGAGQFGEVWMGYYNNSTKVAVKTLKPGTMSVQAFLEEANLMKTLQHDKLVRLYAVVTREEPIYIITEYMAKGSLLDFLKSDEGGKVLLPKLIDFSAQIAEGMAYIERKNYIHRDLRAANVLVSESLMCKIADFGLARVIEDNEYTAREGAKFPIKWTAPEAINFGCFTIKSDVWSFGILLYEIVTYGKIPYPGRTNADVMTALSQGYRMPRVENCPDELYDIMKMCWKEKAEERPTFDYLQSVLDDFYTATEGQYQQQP
T3 sequence (Q13151 whole entry): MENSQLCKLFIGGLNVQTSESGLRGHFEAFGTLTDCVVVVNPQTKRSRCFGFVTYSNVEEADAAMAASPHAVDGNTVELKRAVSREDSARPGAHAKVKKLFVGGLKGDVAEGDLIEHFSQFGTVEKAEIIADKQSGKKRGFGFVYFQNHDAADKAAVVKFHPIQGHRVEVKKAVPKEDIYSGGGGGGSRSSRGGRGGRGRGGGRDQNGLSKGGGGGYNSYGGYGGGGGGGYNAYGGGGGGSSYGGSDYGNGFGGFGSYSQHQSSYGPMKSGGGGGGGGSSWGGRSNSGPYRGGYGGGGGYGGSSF
T4 sequence (Q16270 27-282): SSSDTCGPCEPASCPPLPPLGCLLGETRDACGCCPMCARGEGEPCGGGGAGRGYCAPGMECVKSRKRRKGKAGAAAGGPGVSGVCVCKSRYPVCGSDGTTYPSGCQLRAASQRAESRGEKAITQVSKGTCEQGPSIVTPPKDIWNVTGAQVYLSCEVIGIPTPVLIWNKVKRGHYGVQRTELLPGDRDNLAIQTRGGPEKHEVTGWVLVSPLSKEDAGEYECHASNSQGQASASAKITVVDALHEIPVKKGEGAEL
CDK4/cyclin D1, sequence (P11802 whole entry): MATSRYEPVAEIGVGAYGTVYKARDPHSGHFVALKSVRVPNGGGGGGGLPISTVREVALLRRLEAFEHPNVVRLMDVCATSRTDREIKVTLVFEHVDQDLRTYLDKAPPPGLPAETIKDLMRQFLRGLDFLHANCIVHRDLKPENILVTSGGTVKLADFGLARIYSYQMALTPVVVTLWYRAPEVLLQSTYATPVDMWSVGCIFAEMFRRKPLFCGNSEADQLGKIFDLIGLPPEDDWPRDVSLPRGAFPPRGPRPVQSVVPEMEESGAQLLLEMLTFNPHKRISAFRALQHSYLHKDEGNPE
T7 sequence (Q14165 29-292): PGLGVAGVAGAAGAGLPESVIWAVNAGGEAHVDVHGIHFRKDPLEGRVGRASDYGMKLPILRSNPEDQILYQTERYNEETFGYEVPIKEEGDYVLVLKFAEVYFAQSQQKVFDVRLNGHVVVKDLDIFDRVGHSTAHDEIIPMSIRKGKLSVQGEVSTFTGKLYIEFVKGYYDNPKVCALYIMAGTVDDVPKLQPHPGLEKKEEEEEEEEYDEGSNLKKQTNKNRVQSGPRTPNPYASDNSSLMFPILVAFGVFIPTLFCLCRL

## CN1CCN(c2ccc(Nc3ncc4cc(C#N)c(=O)n(C5CCCC5)c4n3)cc2)CC1 [Compound 1, 8-cyclopentyl-2-((4-(4-methylpiperazin-1-yl)phenyl)amino)-7-oxo-7,8-dihydropyrido[2,3-d]pyrimidine-6-carbonitrile]
AP2M1
  Group (CETSA-MS thermal shift): Destabilization
BOD1L1
  Group (CETSA-MS thermal shift): Destabilization
HNRNPA0
  Group (CETSA-MS thermal shift): Stabilization
IGFBP7
  Group (CETSA-MS thermal shift): Stabilization
LYN
  Group (CETSA-MS thermal shift): Destabilization
MAP3K20
  Group (CETSA-MS thermal shift): Destabilization
MLEC
  Group (CETSA-MS thermal shift): Stabilization
Hs578t cells
  cell migration (rate of gap closure): inhibited cell migration significantly more than Comparator 1
MDA-MB-231 cells
  cell migration (rate of gap closure): inhibited cell migration significantly more than Comparator 1
BUB1 in MDA-MB-231
  BUB1: ↓
BUB1 in MDA-MB-468
  BUB1: ↓
CXCL10
  time of peak CXCL10 mRNA levels: ~48 h
CXCL10; 24, 48 and 72 hours
  CXCL10 mRNA levels: large increase
NUAK1
  Kd: 19 nM
CDK4/cyclin D1
  CETSA: POS
